Source: PubChem BioAssay (NCI)
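Each compound was tested at five concentrations against cells in 96-well plates for 48 hours. GI50: concentration for 50% inhibition of growth. At the TGI there is no net growth.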

Tests used:
Test in all cases: NCI anticancer screen, dose series, 48 h
[1] = test system: 786-0 renal
[2] = test system: OVCAR-3 ovarian
[3] = test system: HCT-15 colon
[4] = test system: A549 NSCLC
[5] = test system: RPMI-8226 leukemia
[6] = test system: U251 CNS
[7] = test system: SNB-19 CNS
[8] = test system: SN12C renal
[9] = test system: NCI-H522 lung
[10] = test system: IGROV1 ovarian

CC1=C(C)C2(O)C(=C(C)C1=O)/C(=C(/O)c1ccccc1)c1nc3ccccc3n12 (centres undefined)
GI50 [1]: 29.5 µM
TGI [1]: 83.9 µM
GI50 [2]: 12.6 µM
TGI [2]: 38.6 µM
GI50 [3]: 19.3 µM
TGI [3]: 46.5 µM
GI50 [4]: 19.3 µM
TGI [4]: 44.4 µM
GI50 [5]: 13.2 µM
TGI [5]: 33.2 µM
GI50 [6]: 22.1 µM
TGI [6]: 58.2 µM
GI50 [7]: 19.7 µM
TGI [7]: 46.9 µM
GI50 [8]: 19.3 µM
TGI [8]: 34.6 µM
GI50 [9]: 19.6 µM
TGI [9]: 44.2 µM
GI50 [10]: 12.3 µM
TGI [10]: 30.4 µM

COc1cccc2c1C(=O)OC2c1cccc2ccccc12 (centres undefined)
TGI [1]: > 100 µM
TGI [2]: > 100 µM
TGI [3]: > 100 µM
TGI [4]: > 100 µM
TGI [5]: > 100 µM
TGI [6]: > 100 µM
TGI [7]: > 100 µM
TGI [8]: > 100 µM
TGI [9]: > 100 µM
TGI [10]: > 100 µM

O=C(CCc1nnc2s/c(=C\c3ccccc3Cl)c(=O)n12)Nc1cc(Cl)ccc1Cl
TGI [1]: > 100 µM
TGI [2]: > 100 µM
TGI [3]: > 100 µM
TGI [4]: > 100 µM
TGI [5]: > 100 µM
TGI [6]: > 100 µM
TGI [7]: > 100 µM
TGI [8]: > 100 µM
TGI [9]: > 100 µM
TGI [10]: > 100 µM

CC(=O)N(O)Cc1ccccc1
TGI [1]: > 100 µM
TGI [2]: > 100 µM
TGI [3]: > 100 µM
TGI [4]: > 100 µM
TGI [5]: > 100 µM
TGI [6]: > 100 µM
TGI [7]: > 100 µM
TGI [8]: > 100 µM
TGI [9]: > 100 µM
TGI [10]: > 100 µM

C#COc1cccc(Nc2ncnc3cc(NC(=O)[C@H](C)Cl)ccc23)c1
GI50 [1]: 3.24 µM
TGI [1]: > 62.5 µM
GI50 [2]: 2.17 µM
TGI [2]: > 62.5 µM
GI50 [3]: 2.5 µM
TGI [3]: > 62.5 µM
GI50 [4]: 3.18 µM
TGI [4]: > 62.5 µM
GI50 [5]: 3.52 µM
TGI [5]: > 62.5 µM
GI50 [6]: 2.84 µM
TGI [6]: > 62.5 µM
GI50 [7]: 4.72 µM
TGI [7]: > 62.5 µM
GI50 [8]: 3.69 µM
TGI [8]: > 62.5 µM
GI50 [9]: 1.67 µM
TGI [9]: 8.29 µM
GI50 [10]: 2.35 µM
TGI [10]: > 62.5 µM

Cc1cn(-c2ccc(S(C)(=O)=O)cc2)c(-c2ccc(Cl)cc2)n1
GI50 [1]: > 100 µM
TGI [1]: > 100 µM
GI50 [2]: > 100 µM
TGI [2]: > 100 µM
GI50 [3]: > 100 µM
TGI [3]: > 100 µM
GI50 [4]: > 100 µM
TGI [4]: > 100 µM
GI50 [5]: > 100 µM
TGI [5]: > 100 µM
GI50 [6]: > 100 µM
TGI [6]: > 100 µM
GI50 [7]: > 100 µM
TGI [7]: > 100 µM
GI50 [8]: > 100 µM
TGI [8]: > 100 µM
GI50 [9]: > 100 µM
TGI [9]: > 100 µM
GI50 [10]: > 100 µM
TGI [10]: > 100 µM

O=c1cc(-c2ccccc2)oc2cc(OC/C(=N/O)c3ccc(F)cc3)ccc12
GI50 [1]: 39.6 µM
TGI [1]: > 50 µM
GI50 [2]: 11.4 µM
TGI [2]: 35.6 µM
GI50 [3]: 18.5 µM
TGI [3]: > 50 µM
GI50 [4]: 20.1 µM
TGI [4]: > 50 µM
GI50 [5]: 15.9 µM
TGI [5]: > 50 µM
GI50 [6]: 22 µM
TGI [6]: > 50 µM
GI50 [7]: > 50 µM
TGI [7]: > 50 µM
GI50 [8]: 15.5 µM
TGI [8]: > 50 µM
GI50 [9]: 14.9 µM
TGI [9]: > 50 µM
GI50 [10]: 19.6 µM
TGI [10]: > 50 µM

S=C=NCCc1ccccc1
TGI [1]: 1.05 µM
TGI [2]: 2.09 µM
TGI [3]: 1.12 µM
TGI [4]: 6.38 µM
TGI [5]: 2.04 µM
TGI [6]: 2.22 µM
TGI [7]: 7.85 µM
TGI [8]: 0.987 µM
TGI [9]: 0.58 µM
TGI [10]: 1.37 µM

COc1cc(NCCN=C(N)NC(N)=NC(C)C)c2ncccc2c1
GI50 [1]: > 88.8 µM
TGI [1]: > 100 µM
GI50 [2]: 1.06 µM
TGI [2]: 23.1 µM
GI50 [3]: > 86 µM
TGI [3]: > 100 µM
GI50 [4]: 37.3 µM
TGI [4]: > 100 µM
GI50 [5]: 15.5 µM
TGI [5]: > 76.4 µM
GI50 [6]: 12.4 µM
TGI [6]: > 100 µM
GI50 [7]: 9.18 µM
TGI [7]: > 100 µM
GI50 [8]: 3.47 µM
TGI [8]: 18.2 µM
GI50 [9]: 3.61 µM
TGI [9]: 40.7 µM
GI50 [10]: 1.37 µM
TGI [10]: > 24.8 µM

Cc1nc2sccn2c1C(=O)NC(=O)Nc1ccc(Cl)cc1
TGI [1]: > 100 µM
TGI [2]: > 100 µM
TGI [3]: > 100 µM
TGI [4]: > 100 µM
TGI [5]: > 100 µM
TGI [6]: > 100 µM
TGI [7]: > 100 µM
TGI [8]: > 100 µM
TGI [9]: > 100 µM
TGI [10]: > 100 µM

COc1ccc(N(/C=C/C(=O)C(F)(F)F)CC(=O)c2ccc(Cl)cc2)cc1
GI50 [1]: 20.7 µM
TGI [1]: 57.8 µM
GI50 [2]: 12.8 µM
TGI [2]: 36.2 µM
GI50 [3]: 13 µM
TGI [3]: 26.8 µM
GI50 [4]: 29.6 µM
TGI [4]: 87.8 µM
GI50 [5]: 13.4 µM
TGI [5]: 44.7 µM
GI50 [6]: 13.7 µM
TGI [6]: 26.7 µM
GI50 [7]: 18.8 µM
TGI [7]: 47.1 µM
GI50 [8]: 11.2 µM
TGI [8]: 23.3 µM
GI50 [9]: 12.7 µM
TGI [9]: 30 µM
GI50 [10]: 6.14 µM
TGI [10]: 21.7 µM

O=C(CC(=O)c1cccc(Cl)c1)c1cccc(Cl)c1
GI50 [1]: 3.86 µM
TGI [1]: > 100 µM
GI50 [2]: 1.67 µM
TGI [2]: 6.09 µM
GI50 [3]: 1.86 µM
TGI [3]: > 100 µM
GI50 [4]: 4.68 µM
TGI [4]: > 100 µM
GI50 [5]: 1.45 µM
TGI [5]: > 100 µM
GI50 [6]: 1 µM
TGI [6]: > 100 µM
GI50 [7]: 6.68 µM
TGI [7]: > 100 µM
GI50 [8]: 2.38 µM
TGI [8]: > 100 µM
GI50 [9]: 2.72 µM
TGI [9]: > 100 µM
GI50 [10]: 2.63 µM
TGI [10]: > 100 µM

O=c1[nH]c(=O)n(C2CC(O)C(CO)O2)cc1C#Cc1ccc(F)cc1 (centres undefined)
TGI [1]: > 100 µM
TGI [2]: > 100 µM
TGI [3]: > 100 µM
TGI [4]: > 100 µM
TGI [5]: > 100 µM
TGI [6]: > 100 µM
TGI [7]: > 100 µM
TGI [8]: > 100 µM
TGI [9]: > 100 µM
TGI [10]: > 100 µM

c1ccc([As]=[As]c2ccccc2)cc1 (centres undefined)
GI50 [1]: 1.28 µM
TGI [1]: 3.19 µM
GI50 [2]: 0.676 µM
TGI [2]: 1.85 µM
GI50 [3]: 0.416 µM
TGI [3]: 2.24 µM
GI50 [4]: 1.87 µM
TGI [4]: 3.9 µM
GI50 [5]: 0.543 µM
TGI [5]: 2.97 µM
GI50 [6]: 0.752 µM
TGI [6]: 2.05 µM
GI50 [7]: 1.42 µM
TGI [7]: 2.8 µM
GI50 [8]: 1.21 µM
TGI [8]: 3.07 µM
GI50 [9]: 1.09 µM
TGI [9]: 2.42 µM
GI50 [10]: 0.666 µM
TGI [10]: 2.76 µM

COc1ccc(Cn2cc3c(c2-c2ccccc2)CCc2cnoc2-3)cc1N
GI50 [1]: 0.602 µM
TGI [1]: > 100 µM
GI50 [2]: 0.0526 µM
TGI [2]: 0.244 µM
GI50 [3]: 0.15 µM
TGI [3]: > 100 µM
GI50 [4]: 0.224 µM
TGI [4]: > 100 µM
GI50 [5]: 0.31 µM
GI50 [6]: 0.287 µM
TGI [6]: > 100 µM
GI50 [7]: 0.531 µM
TGI [7]: > 100 µM
GI50 [8]: 0.694 µM
TGI [8]: > 100 µM
GI50 [9]: 0.027 µM
TGI [9]: 0.339 µM
GI50 [10]: 0.329 µM
TGI [10]: > 100 µM

Cc1cc(=O)[nH]c(CNC(=O)c2cccc(C(=O)NCc3cc(=O)[nH]c(C)n3)c2)n1
TGI [1]: > 100 µM
TGI [2]: > 100 µM
TGI [3]: > 100 µM
TGI [4]: > 100 µM
TGI [5]: > 100 µM
TGI [6]: > 100 µM
TGI [7]: > 100 µM
TGI [8]: > 100 µM
TGI [9]: > 100 µM
TGI [10]: > 100 µM

CCOC(=O)c1ccc2c(c1)[n+](=O)c(C(C)=O)c(C(F)(F)F)n2[O-]
GI50 [1]: 1.67 µM
TGI [1]: 3.21 µM
GI50 [2]: 1.49 µM
TGI [2]: 2.93 µM
GI50 [3]: 1.4 µM
TGI [3]: 3.22 µM
GI50 [4]: 2.04 µM
TGI [4]: 4.39 µM
GI50 [5]: 1.45 µM
TGI [5]: 4 µM
GI50 [6]: 1.48 µM
TGI [6]: 3.02 µM
GI50 [7]: 1.73 µM
TGI [7]: 4.18 µM
GI50 [8]: 2.01 µM
TGI [8]: 4.55 µM
GI50 [9]: 1.8 µM
TGI [9]: 3.84 µM
GI50 [10]: 1.46 µM
TGI [10]: 3.42 µM
